# Assay results from the supplement of paper PMC4977894.
# ± gives the standard deviation of the averaged measurements.
# Experiments:
# [1] = tested on: Homo sapiens (human subject panel, olfactory perception); assay: perceived odor pleasantness rating (rating 0-100); higher = more pleasant
# Method in brief: (§1)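 For each molecule, 1 mL diluted in paraffin oil was sniffed at high and low concentrations by 55 healthy human subjects aged 18–50, with the six lowest performers excluded. Presentation order was randomized over ten visits of 100 stimuli. Subjects who reported smelling a stimulus moved a computerized slider from its starting position of 50, and positions were converted to a 0–100 scale. The familiarity, intensity and pleasantness ratings are averaged across subjects.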
# [2] = tested on: Homo sapiens (human subject panel, olfactory perception); assay: perceived odor familiarity rating (rating 0-100); higher = more familiar
# Method in brief: as §1
# [3] = tested on: Homo sapiens (human subject panel, olfactory perception); assay: perceived odor intensity rating (rating 0-100); higher = stronger perceived smell
# Method in brief: as §1
# [4] = odor dilution in paraffin oil: 1/1,000
# [5] = odor dilution in paraffin oil: 1/100,000
# [6] = odor dilution in paraffin oil: 1/10
# [7] = odor dilution in paraffin oil: 1/10,000,000
SMILES,"perceived odor pleasantness rating [1, 4]","perceived odor pleasantness rating [1, 5]","perceived odor familiarity rating [2, 4]","perceived odor familiarity rating [2, 5]","perceived odor intensity rating [3, 4]","perceived odor intensity rating [3, 5]","perceived odor pleasantness rating [1, 6]","perceived odor familiarity rating [2, 6]","perceived odor intensity rating [3, 6]","perceived odor pleasantness rating [1, 7]","perceived odor familiarity rating [2, 7]","perceived odor intensity rating [3, 7]"
CC/C=C\CCOC(=O)Cc1ccccc1 [cis-3-Hexenyl phenylacetate],40.1 ± 26,52.2 ± 25,41.3 ± 30,37.5 ± 32,51 ± 31,14.4 ± 23,,,,,,
CC/C=C\CCOC(=O)CC [cis-3-Hexenyl propionate],64.4 ± 28,52 ± 20,60.9 ± 30,30.7 ± 28,61.7 ± 26,20.4 ± 23,,,,,,
CC/C=C\CCOC(=O)c1ccccc1O [cis-3-Hexenyl salicylate],48.1 ± 26,49.8 ± 24,40.2 ± 26,36.8 ± 33,49.2 ± 30,9.75 ± 16,,,,,,
C/C=C(\C)C(=O)OCC/C=C\CC [cis-3-Hexenyl tiglate],47.6 ± 28,,47.9 ± 30,,45.7 ± 30,,47.2 ± 31,53.4 ± 31,79.2 ± 18,,,
CC/C=C\CCOC(C)=O [cis-3-hexenyl acetate],63.8 ± 30,70.9 ± 20,73.6 ± 28,64.7 ± 30,76.7 ± 22,41 ± 31,,,,,,
CCCCC/C=C\CCCO [cis-4-Decen-1-ol],49.2 ± 25,53.6 ± 27,49.8 ± 29,40.3 ± 32,65.4 ± 26,29.2 ± 32,,,,,,
CC/C=C\CCC=O [cis-4-Heptenal],,28.7 ± 25,,46.1 ± 33,,66.8 ± 29,,,,32.5 ± 26,45.2 ± 31,56.2 ± 31
CC/C=C\CCCCO [cis-5-Octen-1-ol],59.3 ± 28,66.6 ± 21,69.2 ± 27,59.5 ± 29,75.7 ± 20,40.6 ± 30,,,,,,
O=c1ccc2ccccc2o1 [coumarin],65.1 ± 25,,55.9 ± 31,,62.8 ± 26,,67.2 ± 26,63.8 ± 30,77.5 ± 16,,,
CC(C)c1ccc(C=O)cc1 [cuminaldehyde],51.2 ± 28,58.1 ± 26,50.9 ± 35,31.3 ± 26,59.1 ± 31,16.2 ± 20,,,,,,
C=C(C)[C@H]1CC=C(C)CC1 [d-Limonene],52.6 ± 21,30.9 ± 25,43.6 ± 28,41.1 ± 28,29.6 ± 26,45.4 ± 36,,,,,,
CCCCCCCCCC=O [decanal],33.3 ± 23,,44 ± 30,,59.9 ± 25,,28.7 ± 23,51.9 ± 35,78.9 ± 20,,,
CCCCCCCCCC(=O)O [decanoic acid],28.7 ± 19,,40.6 ± 29,,50.2 ± 30,,28.3 ± 26,47.4 ± 34,75.9 ± 22,,,
CCCCCCCCCCO [decanol],38.6 ± 28,46.8 ± 25,49.6 ± 33,39.4 ± 32,66 ± 27,29.1 ± 24,,,,,,
CCCCCC1CCCC(=O)O1 (configuration not stated) [delta-Decalactone],69.3 ± 22,72.4 ± 20,62.5 ± 28,60.8 ± 29,65.7 ± 28,52 ± 28,,,,,,
CC1CCCC(=O)O1 (configuration not stated) [delta-Hexalactone],45 ± 25,50.5 ± 21,38.8 ± 31,32.7 ± 28,48.4 ± 32,18.4 ± 21,,,,,,
CCCCCCCCCC1CCCC(=O)O1 (configuration not stated) [delta-Tetradecalactone (replicate)],41.9 ± 20,51.2 ± 20,37.7 ± 24,26 ± 28,33 ± 30,13.9 ± 20,,,,,,
CCCCCCCCCC1CCCC(=O)O1 (configuration not stated) [delta-Tetradecalactone],45.5 ± 24,48.1 ± 22,47.2 ± 27,33 ± 25,33.7 ± 26,20.7 ± 24,,,,,,
CCCCCCC1CCCC(=O)O1 (configuration not stated) [delta-Undecalactone],60.7 ± 31,60.7 ± 25,51.5 ± 33,41.4 ± 30,64.9 ± 28,34.4 ± 30,,,,,,

SMILES,"perceived odor pleasantness rating [1, 4]","perceived odor pleasantness rating [1, 5]","perceived odor familiarity rating [2, 4]","perceived odor familiarity rating [2, 5]","perceived odor intensity rating [3, 4]","perceived odor intensity rating [3, 5]","perceived odor pleasantness rating [1, 6]","perceived odor familiarity rating [2, 6]","perceived odor intensity rating [3, 6]","perceived odor pleasantness rating [1, 7]","perceived odor familiarity rating [2, 7]","perceived odor intensity rating [3, 7]"
CCOC(=O)CCC(=O)OCC [diethyl succinate],57.7 ± 24,,44.4 ± 30,,47.1 ± 29,,60.9 ± 22,53.4 ± 30,70.6 ± 24,,,
COC(=O)CCC(=O)OC [dimethyl succinate],43.6 ± 22,,43.2 ± 29,,53.9 ± 29,,49.1 ± 27,46.2 ± 31,63.2 ± 28,,,
CCCSSCCC [dipropyl disulfide],35.9 ± 26,40.1 ± 28,65.6 ± 31,65.5 ± 30,79.9 ± 21,59.7 ± 31,,,,,,
O=C1CCCCCN1 [epsilon-Caprolactam],40.9 ± 26,,39.4 ± 35,,31.3 ± 33,,46 ± 25,31.2 ± 28,30.6 ± 30,,,
CCO [ethanol],60.9 ± 23,49.6 ± 23,41.4 ± 31,34.1 ± 28,19.5 ± 28,14.2 ± 18,,,,,,
CCOC(C)=O [ethyl acetate],45.2 ± 22,45.7 ± 29,44.2 ± 30,40 ± 32,40.3 ± 29,19.3 ± 24,,,,,,
CCCC(=O)OCC [ethyl butyrate],61.1 ± 33,59.6 ± 26,65.6 ± 29,53.5 ± 30,77.8 ± 20,49.6 ± 32,,,,,,
CCOC(=O)/C=C/c1ccccc1 [ethyl cinnamate],54.8 ± 26,63.1 ± 24,43.8 ± 29,43.3 ± 27,61.5 ± 29,55.2 ± 27,,,,,,
CCCCCC(=O)OCC [ethyl hexanoate],78.6 ± 19,71.6 ± 16,69.4 ± 27,56.4 ± 29,73.9 ± 20,53.3 ± 28,,,,,,
CCOC(=O)CC [ethyl propionate],39.9 ± 31,31.3 ± 30,50.7 ± 31,44.5 ± 34,75.7 ± 24,53.9 ± 32,,,,,,
CCOC(=O)CC(C)O (configuration not stated) [ethyl-3-hydroxybutyrate],75.4 ± 18,42 ± 23,62 ± 31,37.4 ± 29,58.1 ± 32,38.3 ± 32,,,,,,
CCCC(O)CC(=O)OCC (configuration not stated) [ethyl-3-hydroxyhexanoate],47.3 ± 27,54.4 ± 23,54.2 ± 28,40.1 ± 31,60.3 ± 24,25.1 ± 27,,,,,,
CCc1ccccc1 [ethylbenzene],35.2 ± 25,50.4 ± 19,51.4 ± 30,37 ± 33,75.5 ± 22,23 ± 24,,,,,,
C=CCc1ccc(O)c(OC)c1 [eugenol],67.6 ± 23,61.8 ± 25,73.6 ± 26,59.6 ± 32,74.6 ± 21,60.4 ± 26,,,,,,
CCCCCCC1CCC(=O)O1 (configuration not stated) [gamma-decalactone],64.9 ± 27,61.4 ± 20,51.5 ± 32,46.4 ± 30,54 ± 28,33.2 ± 28,,,,,,
CC1CCC(=O)O1 (configuration not stated) [gamma-valerolactone],51.4 ± 25,51.3 ± 22,38.9 ± 31,29.3 ± 28,26.9 ± 30,14.7 ± 20,,,,,,
CC(C)=CCC/C(C)=C/CO [geraniol],59.2 ± 25,62.1 ± 27,51.8 ± 31,57 ± 30,71.8 ± 24,42.3 ± 30,,,,,,
CC(=O)OC/C=C(\C)CCC=C(C)C [geranyl acetate],,54.4 ± 19,,36.4 ± 31,,16.3 ± 19,,,,47.9 ± 25,38.7 ± 32,20.4 ± 24
